Data set [1] deals with full length SMN2 minigene mRNA containing SMN2 exon 7. The data set is described as follows: SMN2 minigene mRNA splicing RT-qPCR assay in cultured cells. Type of data set: cell-based, human. Conditions: Homo sapiens, HEK293-H; HEK293H cells stably transfected with SMN2-A minigene, 24 hours, 7-point concentration curve; concentration giving 1.5-fold full length SMN2 mRNA vs vehicle; read-out: EC1.5x for production of full length SMN2 mRNA. The procedure, abridged: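 HEK293H cells stably carrying SMN2-A minigene treated 24 h (37 °C) with compound, 7-point 3.16-fold dilution, duplicates. Multiplex RT-qPCR on lysate with exon 7/luciferase primers and exon 7–8 junction probe (minigene-specific). Full-length transcript normalised to GAPDH by modified ΔΔCt, expressed relative to vehicle-treated cells.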
For orientation: Quantitative PCR measures a nucleic acid by following its amplification.

Another data set has as its system Smn protein. The data set is described as follows: Smn protein assay in cultured cells (SMN HTRF). In kind it is cell-based, human. The settings on record: SMA patient fibroblast cells (GM03813), 48 hours; for EC1.5x for Smn protein expression: 7-point concentration curve, concentration producing 1.5 times Smn protein vs DMSO vehicle; for maximum fold (Fold) increase of Smn protein: 7-point concentration data, relative to vehicle control. The procedure, abridged:
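SMA patient fibroblasts, 5,000 per well in DMEM-10% FBS, exposed 48 h at 37° C. to a 7-point, 3.16-fold compound series in triplicate. RIPA lysates read by SMN HTRF (665/620 nm, overnight at room temperature); ΔF over blank expressed as fold of vehicle.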
A general note: Time-resolved FRET reads energy transfer from a long-lived donor to a nearby acceptor.

As usually defined, the melting point is the temperature, or range, at which the solid turns liquid.

`CCN1CCN(c2ccc3cc(-c4cn5cc(C)ncc5n4)oc(=O)c3c2)C[C@@H]1C` [Cpd 120, 7-[(3S)-4-ethyl-3-methylpiperazin-1-yl]-3-(6-methylimidazo[1,2-a]pyrazin-2-yl)-1H-isochromen-1-one]: the melting point was in the range of 255 to 260 °C. Besides, the EC (1.5-fold) in data set [1] was ≤ 0.1 µM. In addition, in the data set on Smn protein, the “EC1.5x for Smn protein expression” value is “**** (an EC1.5×≦0.3 nM is indicated by four stars (****))” and the “maximum fold (Fold) increase of Smn protein” value (“maximum fold (Fold) increase” below) is “***** (a fold increase >1.65 is indicated by five stars (*****))”.
In turn, `Cc1cn2cc(-c3cc4ccc(N5CCN(CCO)[C@H](C)C5)cc4c(=O)o3)nc2c(C)n1` [Cpd 142, 3-(6,8-dimethylimidazo[1,2-a]pyrazin-2-yl)-7-[(3R)-4-(2-hydroxyethyl)-3-methylpiperazin-1-yl]-1H-isochromen-1-one] gave a melting point of 256 to 261 °C. In data set [1], the EC (1.5-fold) was ≤ 0.1 µM. In the data set with Smn protein, the “EC1.5x for Smn protein expression” value is “**** (an EC1.5×≦0.3 nM is indicated by four stars (****))” and the “maximum fold (Fold) increase” value is recorded as “***** (a fold increase >1.65 is indicated by five stars (*****))”.
For the molecule `Cc1cn2cc(-c3cc4ccc(N5CCN(C6CCC6)CC5)cc4c(=O)o3)nc2c(C)n1` [Cpd 87, 7-(4-cyclobutylpiperazin-1-yl)-3-(6,8-dimethylimidazo[1,2-a]pyrazin-2-yl)-1H-isochromen-1-one], the melting point lay within 279 to 281 °C. In data set [1], the EC (1.5-fold) was ≤ 0.1 µM. In addition, in the data set with Smn protein, the “EC1.5x for Smn protein expression” value is on record as “**** (an EC1.5×≦0.3 nM is indicated by four stars (****))”; the “maximum fold (Fold) increase” value is “**** (a fold increase between >1.5 and ≦1.65 is indicated by four stars (****))”.
Consider `Cc1cn2cc(-c3cc4ccc(N5CCN(C)CC5)cc4c(=O)o3)nc2cn1` [Cpd 122, 3-(6-methylimidazo[1,2-a]pyrazin-2-yl)-7-(4-methylpiperazin-1-yl)-1H-isochromen-1-one], for which the melting point was 279 to 285 °C. The EC (1.5-fold) in data set [1] is ≤ 0.1 µM. Besides, in the data set with Smn protein, the “EC1.5x for Smn protein expression” value was “**** (an EC1.5×≦0.3 nM is indicated by four stars (****))” and the “maximum fold (Fold) increase” value is “***** (a fold increase >1.65 is indicated by five stars (*****))”.
In turn, `Cc1cn2cc(-c3cc4ccc(N5C[C@@H](C)N(C)[C@@H](C)C5)cc4c(=O)o3)nc2c(C)n1` [Cpd 149, 3-(6,8-dimethylimidazo[1,2-a]pyrazin-2-yl)-7-[(3R,5S)-3,4,5-trimethylpiperazin-1-yl]-1H-isochromen-1-one] displayed a melting point of 261 to 266 °C. For the same molecule, in data set [1], the EC (1.5-fold) was ≤ 0.1 µM. In the data set with Smn protein, the “EC1.5x for Smn protein expression” value is reported as “**** (an EC1.5×≦0.3 nM is indicated by four stars (****))” and the “maximum fold (Fold) increase” value was “***** (a fold increase >1.65 is indicated by five stars (*****))”.
The molecule `Cc1cn2cc(-c3cc4ccc(N5CCN(C(C)C)CC5)cc4c(=O)o3)nc2cn1` [Cpd 128, 3-(6-methylimidazo[1,2-a]pyrazin-2-yl)-7-[4-(propan-2-yl)piperazin-1-yl]-1H-isochromen-1-one] showed a melting point of 231 to 236 °C. Also, the EC (1.5-fold) in data set [1] was ≤ 0.1 µM. For the same molecule, in the data set with Smn protein, the “EC1.5x for Smn protein expression” value is reported as “**** (an EC1.5×≦0.3 nM is indicated by four stars (****))” and the “maximum fold (Fold) increase” value is “***** (a fold increase >1.65 is indicated by five stars (*****))”.
In turn, `O=c1oc(-c2cc(F)cc(F)c2)cc2ccc(N3CCNCC3)cc12` [Cpd 14, 3-(3,5-difluorophenyl)-7-(piperazin-1-yl)-1H-isochromen-1-one] came in with a melting point of 200 to 202 °C. In data set [1], the EC (1.5-fold) is 1 to 3 µM. Moreover, the “maximum fold (Fold) increase” value in the data set with Smn protein was “** (a fold increase between >1.2 and ≦1.35 is indicated by two stars (**))”.
As for `Cc1nc2ccc(-c3cc4ccc(N5CCN(C)CC5)cc4c(=O)o3)cc2s1` [Cpd 104, 3-(2-methyl-1,3-benzothiazol-6-yl)-7-(4-methylpiperazin-1-yl)-1H-isochromen-1-one], the melting point is 231 to 236 °C. For the same molecule, in data set [1], the EC (1.5-fold) was 0.1 to 0.3 µM. Further, the “maximum fold (Fold) increase” value with Smn protein was “*** (a fold increase between >1.35 and ≦1.5 is indicated by three stars (***))”.
On to `C[C@@H]1CN(c2ccc3cc(-c4ccc5c(c4)OCCO5)oc(=O)c3c2)CCN1` [Cpd 37, 3-(2,3-dihydro-1,4-benzodioxin-6-yl)-7-[(3R)-3-methylpiperazin-1-yl]-1H-isochromen-1-one], for which the melting point fell in the range of 175 to 177 °C. The EC (1.5-fold) in data set [1] was in the range of 1 to 3 µM. Besides, the “maximum fold (Fold) increase” value in the data set on Smn protein was “* (A maximum fold increase of ≦1.2 is indicated by one star (*))”.
With `Cc1cn2cc(-c3cc4ccc(N5CCN(CC(C)C)CC5)cc4c(=O)o3)nc2c(C)n1` [Cpd 86, 3-(6,8-dimethylimidazo[1,2-a]pyrazin-2-yl)-7-[4-(2-methylpropyl)piperazin-1-yl]-1H-isochromen-1-one], the melting point was 243 to 245 °C. Moreover, in data set [1], the EC (1.5-fold) was ≤ 0.1 µM. Also, the “maximum fold (Fold) increase” value in the data set on Smn protein is “*** (a fold increase between >1.35 and ≦1.5 is indicated by three stars (***))”.
With `CCOc1ccc(-c2cc3ccc(N4CCNCC4)cc3c(=O)o2)cc1` [Cpd 51, 3-(4-ethoxyphenyl)-7-(piperazin-1-yl)-1H-isochromen-1-one], the melting point was 245 °C (dec.). Moreover, the EC (1.5-fold) in data set [1] fell in the range of 1 to 3 µM. For the same molecule, the “maximum fold (Fold) increase” value in the data set on Smn protein is “* (A maximum fold increase of ≦1.2 is indicated by one star (*))”.
`COc1cccc(-c2cc3ccc(N4CCNCC4)cc3c(=O)o2)c1` [Cpd 18, 3-(3-methoxyphenyl)-7-(piperazin-1-yl)-1H-isochromen-1-one]: the melting point fell in the range of 140 to 142 °C. Also, in data set [1], the EC (1.5-fold) was in the range of 0.3 to 1 µM. Further, the “maximum fold (Fold) increase” value in the data set with Smn protein was “* (A maximum fold increase of ≦1.2 is indicated by one star (*))”.
In turn, `COc1ccc(-c2cc3ccc(N4CCN[C@@H](C)C4)cc3c(=O)o2)cc1F` [Cpd 43, 3-(3-fluoro-4-methoxyphenyl)-7-[(3S)-3-methylpiperazin-1-yl]-1H-isochromen-1-one] gave a melting point of 209 to 211 °C. In addition, in data set [1], the EC (1.5-fold) was ≤ 0.1 µM. In the data set on Smn protein, the “EC1.5x for Smn protein expression” value is given as “**** (an EC1.5×≦0.3 nM is indicated by four stars (****))”; the “maximum fold (Fold) increase” value is “*** (a fold increase between >1.35 and ≦1.5 is indicated by three stars (***))”.
As to `CCN1CCC(c2ccc3cc(-c4cn5cc(C)nc(C)c5n4)oc(=O)c3c2)CC1` [Cpd 115, 3-(6,8-dimethylimidazo[1,2-a]pyrazin-2-yl)-7-(1-ethylpiperidin-4-yl)-1H-isochromen-1-one], the melting point was 215 to 217 °C. Moreover, the EC (1.5-fold) in data set [1] is ≤ 0.1 µM. For the same molecule, in the data set with Smn protein, the “EC1.5x for Smn protein expression” value was “**** (an EC1.5×≦0.3 nM is indicated by four stars (****))” and the “maximum fold (Fold) increase” value is given as “***** (a fold increase >1.65 is indicated by five stars (*****))”.
On to `COc1ccc(-c2cc3ccc(N4CCN[C@@H](C)C4)cc3c(=O)o2)cc1Cl` [Cpd 46, 3-(3-chloro-4-methoxyphenyl)-7-[(3S)-3-methylpiperazin-1-yl]-1H-isochromen-1-one], for which the melting point fell in the range of 187 to 189 °C. The EC (1.5-fold) in data set [1] fell in the range of 0.1 to 0.3 µM. In the data set with Smn protein, the “EC1.5x for Smn protein expression” value is “*** (an EC1.5× between >0.3 nM and ≦1 nM is indicated by three stars (***))”; the “maximum fold (Fold) increase” value was “**** (a fold increase between >1.5 and ≦1.65 is indicated by four stars (****))”.
With `O=c1oc(-c2cn3ccccc3n2)cc2ccc(N3CCNCC3)cc12` [Cpd 26, 3-(imidazo[1,2-a]pyridin-2-yl)-7-(piperazin-1-yl)-1H-isochromen-1-one], the melting point is 248 °C (dec.). In data set [1], the EC (1.5-fold) was in the range of 1 to 3 µM. In addition, the “maximum fold (Fold) increase” value in the data set with Smn protein is reported as “* (A maximum fold increase of ≦1.2 is indicated by one star (*))”.
`COc1cccc(-c2cc3ccc(N4C[C@@H](C)N[C@@H](C)C4)cc3c(=O)o2)c1` [Cpd 20, 7-[(3R,5S)-3,5-dimethylpiperazin-1-yl]-3-(3-methoxyphenyl)-1H-isochromen-1-one]: the melting point fell in the range of 195 to 197 °C. Further, the EC (1.5-fold) in data set [1] fell in the range of 3 to 30 µM. Further, in the data set on Smn protein, the “maximum fold (Fold) increase” value was “* (A maximum fold increase of ≦1.2 is indicated by one star (*))”.
Regarding `Cc1cn2cc(-c3cc4ccc(N5CCN(C6COC6)CC5)cc4c(=O)o3)nc2c(C)n1` [Cpd 97, 3-(6,8-dimethylimidazo[1,2-a]pyrazin-2-yl)-7-[4-(oxetan-3-yl)piperazin-1-yl]-1H-isochromen-1-one], the melting point was 294 to 296 °C. Further, in data set [1], the EC (1.5-fold) was 1 to 3 µM. In addition, in the data set on Smn protein, the “maximum fold (Fold) increase” value is “*** (a fold increase between >1.35 and ≦1.5 is indicated by three stars (***))”.
In turn, `CCN1[C@H](C)CN(c2ccc3cc(-c4cn5cc(C)ncc5n4)oc(=O)c3c2)C[C@@H]1C` [Cpd 129, 7-[(3R,5S)-4-ethyl-3,5-dimethylpiperazin-1-yl]-3-(6-methylimidazo[1,2-a]pyrazin-2-yl)-1H-isochromen-1-one] displayed a melting point of 233 to 238 °C. The EC (1.5-fold) in data set [1] is ≤ 0.1 µM. Moreover, in the data set on Smn protein, the “EC1.5x for Smn protein expression” value was “**** (an EC1.5×≦0.3 nM is indicated by four stars (****))” and the “maximum fold (Fold) increase” value was “***** (a fold increase >1.65 is indicated by five stars (*****))”.

The values above are taken from patent US9399649B2, “Compounds for treating spinal muscular atrophy” (PTC Therapeutics Inc., priority 2012, dated 2016).
